# Data from US20180339016A1 (priority 2015, published 2018).
# Where two headings read alike, the source gives them in different places.
# Key:
# [1] = tested on: Escherichia coli (ATCC 25922); conditions: peptide alone; peptide concentration required to inhibit growth by 20% (so in the source)
# Experimental: (§1) The N-terminus of the peptides were acetylated and the C-terminus was amidated. The kinked structure can rapidly reduce the alpha-helical content, thereby greatly reducing the toxicity of the peptide against host cells. In addition, because of the potential to show specificity for the Gram-negative bacterial membrane, Pro-mutants were prepared by site-directed mutagenesis. Using the prepared peptides, their MIC for the Gram-negative bacterium E. coli and the Gram-positive bacterium S. aureus and their hemolytic activity for host cells were examined (Table 1).
# (§2) To measure the synergy between the membrane-activating peptides and the repositioning drug, a 10× compound was prepared, and then serially diluted ⅔-fold with distilled water. An MH broth (900 μl) was added to and mixed with the 10× compound (100 μl), and then 200 μL of the mixture was taken and added to a 96-well plate. E. coli cultured for one day was adjusted to 0.5 MCF using MCFarland, and diluted 10-fold, and then 10 μl of the dilution was added to each well of the plate (5×10^5 CFU/mL). After addition of the bacterial cells, plate was incubated at 37° C. for 18 hours, and then the OD value at UV-Vis (600 nm) was measured. Cell viability (%)=(OD600 of sample−OD600 of negative control)/(OD600 of positive control−OD600 of negative control)×100.
# [2] = tested on: E. coli NDm-1; experiment: Confocal microscopy of TAMRA-conjugated peptide; type: cell-based; conditions: 2.5 μM peptide, 30 minutes, FIG. 8
# Experimental: E. coli NDm-1 was diluted when it reached OD600=0.5. The microorganism was treated with 2.5 μM of the peptide in a 37° C. incubator for 30 minutes. LK-L12P was used as a positive control.
# [3] = tested on: Staphylococcus aureus (ATCC 29213); experiment: MIC of peptide against S. aureus; type: cell-based; conditions: peptide alone
# Experimental: as §1
# [4] = tested on: E. coli ATCC 25922; conditions: Table 4
# [5] = tested on: E. coli; experiment: SYTOX Green membrane penetrability by FACS; type: cell-based; conditions: FIG. 6
# Experimental: In the second experiment, whether the peptides would have the ability to disrupt both the outer wall and inner wall of bacteria was examined. To this end, the fluorescent dye Sytox Green capable of specifically staining DNA was used, and penetrability into the microbial membrane was evaluated from the average fluorescence intensity of E. coli treated with SYTOX Green. An E. coli suspension (2×10^8 cells/mL) was incubated with the three peptides in the presence of SYTOX Green (2.5 μM) for 10 minutes, respectively. Penetrability was quantified by a (fluorescence activated cell sorter (FACS). The average fluorescence intensity of 1×10^4 gate cells was measured. Melittin (control) is a pore-forming peptide that disrupts the microbial cell membrane.
# [6] = tested on: E. coli ATCC 25922; experiment: Antibiotic interaction assay (Wimley), 2/3 broth microdilution: MIC alone, MIC of combination, FICI; type: cell-based
# Experimental: Synergy was evaluated by an antibiotic interaction assay (Wimley, 2015) Using the method of Wimley (BBA, 2015, v. 1848(1), pp. 8-15), synergy between the membrane-activating peptide and an antibiotic was measured by an FICI value (FIG. 17). […] Thus, to accurately examine synergy, a ⅔ dilution method which observes MIC at denser concentration intervals is advantageous over a ½ dilution method in statistical terms. […] In the same manner, the MIC of an antibiotic or repositioning drug (second line) is measured. In the third line, the two compounds are mixed after putting half amount each, and the MIC thereof is measured.
# A broth microdilution technique (⅔ dilution) was used together with an MH broth. E. coli treated with an antibiotic and the peptide was incubated in a 37° C. incubator for 18 hours.
# as §2
# [7] = tested on: E. coli; experiment: NPN fluorescence, penetration into outer membrane; type: cell-based; conditions: FIG. 5
# Experimental: Penetration into the microbial outer membrane was measured by the fluorescence intensity of NPN-treated E. coli (λex=355 nm, λem=405 nm). An E. coli suspension (8×10^7 cells/mL) was centrifuged at 13000 rpm at 25° C. for 10 minutes, and suspended in 5 mM HEPES buffer (pH 7.2). NPN was added to the E. coli suspension to a final NPN concentration of 5 μM. The fluorescence intensity of the E. coli suspension was measured using the FL-55 fluorometer. The peptide together with 5 μM NPN was added to the E. coli suspension.
compound,measurement,setting,value
LKKLLKLLKKLPKL [LK-L12P],MIC [μM] Against E. coli,[1],2.5 µM
same,confocal image: membrane leakage / distribution of TAMRA-labeled peptide,[2],strongly induced leakage from the inner membrane and the outer membrane
same,MIC [μM] Against S. aureus,[3],10 µM
colistin,"MIC (μM) against E. coli ATCC 25922, Colistin alone",[4],1.25 µM
same,SYTOX Green DNA staining: ability to degrade or penetrate the inner wall,[5],easily stained DNA
same,lowering of MIC in combination KL-L9P/colistin/linezolid versus alone,[6],16 fold
same,MIC when the three compounds were used alone,[6]; Example 7,0.8 µM
same,"MIC (μM) against E. coli ATCC, combination of 3 compounds","[6]; KL-L9P + colistin + (S)-ibuprofen, concentration of labelled component",0.08 µM
same,"MIC (μM) against E. coli ATCC, combination of 3 compounds","[6]; KL-L9P + colistin + cloxacillin, concentration of labelled component",0.08 µM
same,"MIC (μM) against E. coli ATCC, combination of 3 compounds","[6]; KL-L9P + colistin + curcumin, concentration of labelled component",0.08 µM
same,"MIC (μM) against E. coli ATCC, combination of 3 compounds","[6]; KL-L9P + colistin + linezolid, concentration of labelled component",0.06 µM
same,"MIC (μM) against E. coli ATCC, combination of 3 compounds","[6]; KL-L9P + colistin + simvastatin, concentration of labelled component",0.06 µM
same,"MIC (μM) against E. coli ATCC, combination of two compounds","[6]; KL-L9P + colistin, concentration of labelled component",0.17 µM
same,MIC,"[6]; Tables 19-23, read-out: MIC (μM) against E. coli ATCC, 1 compound alone",1 µM
same,"MIC (μM) against E. coli ATCC, combination of two compounds","[6]; colistin + (S)-ibuprofen, concentration of labelled component",0.55 µM
same,"MIC (μM) against E. coli ATCC, combination of two compounds","[6]; colistin + cloxacillin, concentration of labelled component",0.63 µM
same,"MIC (μM) against E. coli ATCC, combination of two compounds","[6]; colistin + curcumin, concentration of labelled component",0.30 µM
same,"MIC (μM) against E. coli ATCC, combination of two compounds","[6]; colistin + linezolid, concentration of labelled component",0.60 µM
same,"MIC (μM) against E. coli ATCC, combination of two compounds","[6]; colistin + simvastatin, concentration of labelled component",0.25 µM
same,MIC of combination (μM): KL-L9P,[6]; concentration of KL-L9P in combination with labelled drug,2.40 µM
same,concentration killing E. coli in combination KL-L9P/colistin/linezolid,[6]; concentration of labelled component,50 nM
same,MIC of combination (μM): antibiotic,[6]; concentration of labelled drug in combination with KL-L9P,0.17 µM
same,MIC,"[6]; drug alone, <20% growth of positive control, read-out: MIC of antibiotic",1.63 µM
same,FICI of drug with KL-L9P,[6]; labelled drug + KL-L9P,0.26
same,FICIKL-L9P,[6]; labelled drug + KL-L9P,0.16
same,FICIantibiotic,[6]; labelled drug + KL-L9P,0.10
same,NPN fluorescence: touching/loosening the outer membrane,[7],had the property of touching the outer membrane and entering the outer membrane
CC[C@H](C)[C@H](NC(=O)CN)C(=O)NCC(=O)N[C@@H](C)C(=O)N[C@H](C(=O)N[C@@H](CC(C)C)C(=O)N[C@@H](CCCCN)C(=O)N[C@H](C(=O)N[C@@H](CC(C)C)C(=O)N[C@H](C(=O)N[C@H](C(=O)NCC(=O)N[C@@H](CC(C)C)C(=O)N1CCC[C@H]1C(=O)N[C@@H](C)C(=O)N[C@@H](CC(C)C)C(=O)N[C@H](C(=O)N[C@@H](CO)C(=O)N[C@@H](Cc1c[nH]c2ccccc12)C(=O)N[C@H](C(=O)N[C@@H](CCCCN)C(=O)N[C@@H](CCCNC(=N)N)C(=O)N[C@@H](CCCCN)C(=O)N[C@@H](CCCNC(=N)N)C(=O)N[C@@H](CCC(N)=O)C(=O)N[C@@H](CCC(N)=O)C(N)=O)[C@@H](C)CC)[C@@H](C)CC)[C@@H](C)O)[C@@H](C)O)C(C)C)C(C)C [Melittin],SYTOX Green DNA staining: ability to degrade or penetrate the inner wall,[5],have this ability
same,NPN fluorescence: touching/loosening the outer membrane,[7],high ability to increase NPN fluorescence
